According to patent publication US10913753B2, “Thienopyridine carboxamides as ubiquitin-specific protease inhibitors” (FORMA Therapeutics, Inc., priority 2016, dated 2021):

Columns and labels:
[1] = molecular target: USP25 (Homo sapiens (Human), UniProt Q9UHP3); assay: Ubiquitin-Rhodamine 110 Assay for USP25 Activity; format: biochemical
Method in brief: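 USP25-His6 (75 pM) preincubated 30 min with compound (25 μM to 1.3 nM, 10-point 3-fold), then Ub-Rh110 added; 45 min at room temperature in pH 8.0 Tris buffer with BME, BGG, Triton X-100, stopped with 10 mM citric acid. Fluorescence 485/535 nm; % inhibition vs no-enzyme and DMSO controls, IC50 by 4-parameter logistic fit.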

[2] = molecular target: USP28 (Homo sapiens (Human), UniProt Q96RU2); assay: Ubiquitin-Rhodamine 110 Assay for USP28 Activity; format: biochemical
Method in brief: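 Single-point screen at 10 μM, 90 min; follow-up dose-response (25 μM top, 3-fold) with 75 pM USP28 (1-1077)-TEV-6*His, 30 min compound preincubation, Ub-Rh110 substrate for 20 min at room temperature, citric acid stop. Buffer pH 8.0 Tris; fluorescence 485/535 nm; IC50 by 4-parameter logistic fit of % inhibition.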

Sequence of USP25 (Q9UHP3 whole entry): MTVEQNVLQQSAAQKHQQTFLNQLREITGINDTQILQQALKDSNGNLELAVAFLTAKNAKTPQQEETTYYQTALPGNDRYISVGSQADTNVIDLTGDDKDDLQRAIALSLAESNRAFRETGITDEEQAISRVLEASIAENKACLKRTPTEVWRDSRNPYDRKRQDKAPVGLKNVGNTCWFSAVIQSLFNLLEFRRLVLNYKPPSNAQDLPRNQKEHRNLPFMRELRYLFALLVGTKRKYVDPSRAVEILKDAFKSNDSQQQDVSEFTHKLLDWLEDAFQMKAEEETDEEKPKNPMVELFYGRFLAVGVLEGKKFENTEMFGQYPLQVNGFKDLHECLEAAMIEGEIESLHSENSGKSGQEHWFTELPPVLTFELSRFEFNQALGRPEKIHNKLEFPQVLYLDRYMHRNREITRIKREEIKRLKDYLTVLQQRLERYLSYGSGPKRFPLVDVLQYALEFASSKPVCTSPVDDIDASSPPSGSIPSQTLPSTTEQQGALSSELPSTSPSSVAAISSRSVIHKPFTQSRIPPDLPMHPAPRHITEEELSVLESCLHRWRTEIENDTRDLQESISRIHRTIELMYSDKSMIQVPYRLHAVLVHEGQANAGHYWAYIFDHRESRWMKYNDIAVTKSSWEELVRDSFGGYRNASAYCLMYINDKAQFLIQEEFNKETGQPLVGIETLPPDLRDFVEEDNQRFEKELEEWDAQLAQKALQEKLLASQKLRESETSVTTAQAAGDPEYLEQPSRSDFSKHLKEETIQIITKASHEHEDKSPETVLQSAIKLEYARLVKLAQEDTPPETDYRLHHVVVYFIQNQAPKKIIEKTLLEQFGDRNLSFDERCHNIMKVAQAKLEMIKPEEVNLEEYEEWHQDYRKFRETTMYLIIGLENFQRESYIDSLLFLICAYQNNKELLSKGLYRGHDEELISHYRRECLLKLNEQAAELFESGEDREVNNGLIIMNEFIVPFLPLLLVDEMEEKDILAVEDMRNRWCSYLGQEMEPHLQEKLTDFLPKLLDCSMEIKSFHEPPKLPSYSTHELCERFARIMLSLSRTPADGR
Sequence of USP28 (Q96RU2 whole entry): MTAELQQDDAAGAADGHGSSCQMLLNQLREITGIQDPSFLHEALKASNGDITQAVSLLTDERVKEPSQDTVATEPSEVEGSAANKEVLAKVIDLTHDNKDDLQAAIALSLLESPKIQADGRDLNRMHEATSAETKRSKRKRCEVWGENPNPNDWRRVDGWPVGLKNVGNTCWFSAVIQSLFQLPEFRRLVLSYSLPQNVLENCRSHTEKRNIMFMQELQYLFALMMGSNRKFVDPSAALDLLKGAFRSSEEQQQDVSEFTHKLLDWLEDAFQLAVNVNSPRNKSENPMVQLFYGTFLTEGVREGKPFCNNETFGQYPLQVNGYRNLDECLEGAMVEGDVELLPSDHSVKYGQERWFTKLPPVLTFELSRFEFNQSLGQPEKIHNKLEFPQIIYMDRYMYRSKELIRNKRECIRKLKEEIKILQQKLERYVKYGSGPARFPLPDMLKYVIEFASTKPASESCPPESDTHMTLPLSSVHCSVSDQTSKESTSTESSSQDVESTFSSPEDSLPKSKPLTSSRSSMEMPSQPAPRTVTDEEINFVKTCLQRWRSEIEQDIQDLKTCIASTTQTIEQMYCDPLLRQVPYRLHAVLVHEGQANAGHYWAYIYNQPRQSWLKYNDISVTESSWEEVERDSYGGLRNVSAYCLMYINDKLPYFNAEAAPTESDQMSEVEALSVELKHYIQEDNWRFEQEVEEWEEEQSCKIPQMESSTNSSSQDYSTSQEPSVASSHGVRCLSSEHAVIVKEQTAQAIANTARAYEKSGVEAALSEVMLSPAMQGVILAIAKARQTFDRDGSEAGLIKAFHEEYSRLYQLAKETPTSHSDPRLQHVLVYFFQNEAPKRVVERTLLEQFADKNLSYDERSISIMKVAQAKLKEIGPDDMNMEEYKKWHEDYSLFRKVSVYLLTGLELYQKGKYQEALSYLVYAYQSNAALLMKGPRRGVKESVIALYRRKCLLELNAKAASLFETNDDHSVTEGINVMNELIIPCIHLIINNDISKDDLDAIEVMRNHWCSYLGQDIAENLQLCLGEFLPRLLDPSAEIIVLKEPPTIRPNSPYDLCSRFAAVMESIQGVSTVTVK

In the case of `Cc1ccc2c(N)c(C(=O)NCCc3ccc(N4CCN(C5CCC5)CC4)cc3)sc2n1` [Example I-75], the IC50 [1] is reported as 0.2 to 2 µM and the IC50 [2] is reported as 0.2 to 2 µM.
Molecule `Cc1ccc2c(N)c(C(=O)NCCc3ccc(N4CCNCC4)c(-c4ccccc4)c3)sc2n1` [Compound I-23] has an IC50 [1] of 2 to 10 µM and an IC50 [2] of 0.2 to 2 µM.
With `Cc1ccc2c(N)c(C(=O)NC[C@H](C)c3ccc(N4CC5CCC(C4)N5)c(C#N)c3)sc2n1` (single isomer, unassigned) [Example I-110] the IC50 [1] was 2 to 10 µM and the IC50 [2] was 0.2 to 2 µM.
`Nc1c(C(=O)NCCc2ccc(N3CCNCC3)c(Cl)c2)sc2ncc(Cl)cc12` [Compound I-40] showed an IC50 [1] of 2 to 10 µM and an IC50 [2] of 0.2 to 2 µM.
Molecule `CCN[C@@H]1CCN(c2ccc(CCNC(=O)c3sc4nc(C)ccc4c3N)cc2)C1` [Example I-200, (R)-3-amino-N-(4-(3-(ethylamino)pyrrolidin-1-yl)phenethyl)-6-methylthieno[2,3-b]pyridine-2-carboxamide] has an IC50 [1] of 0.2 to 2 µM and an IC50 [2] of 0.2 to 2 µM.
With `Cc1ccc2c(N)c(C(=O)NCCc3ccc(N4C5CNCC4C5)cc3)sc2n1` [Compound I-64] the IC50 [1] was < 0.2 µM and the IC50 [2] was < 0.2 µM.
`Cc1ccc2c(N)c(C(=O)NCCc3ccc4c(c3)CNCC4)sc2n1` [Example I-90] was tested, and the IC50 [1] was 0.2 to 2 µM and the IC50 [2] was 0.2 to 2 µM.
Molecule `Nc1c(C(=O)NCCc2ccc(N3CCNCC3)c(Cl)c2)sc2nc(C(F)F)ccc12` [Example I-179, 3-Amino-N-(3-chloro-4-(piperazin-1-yl)phenethyl)-6-(difluoromethyl)thieno[2,3-b]pyridine-2-carboxamide] has an IC50 [1] of 2 to 10 µM and an IC50 [2] of 2 to 10 µM.
`CC(C)Nc1ccc2c(N)c(C(=O)NCCc3ccc(N4CCNCC4)cc3)sc2n1` [Example I-189] was tested, and the IC50 [1] was 2 to 10 µM and the IC50 [2] was 0.2 to 2 µM.
In the case of `Cc1nc2sc(C(=O)NCCc3ccc(N4CCNCC4)cc3)c(N)c2cc1N` [Example I-198, 3,5-Diamino-6-methyl-N-(4-(piperazin-1-yl)phenethyl)thieno[2,3-b]pyridine-2-carboxamide], the IC50 [1] is reported as 10 to 25 µM and the IC50 [2] is reported as 2 to 10 µM.
